Experiment [1] relates to CGS 21680-induced catalepsy in mice. Description: Activity on CGS 21680-induced Catalepsy. The class given is in vivo, mouse (male ddY). As to conditions: 10 mg/kg oral; for Total score (catalepsy): 10 animals, maximum 50 points, control 48; for Number of Animals showing remission: catalepsy score 4 points or less in 10 cases; for inhibition in vivo at 10 mg/kg: Mus musculus, CGS 21680-induced catalepsy, read-out: Remission ratio (%). Summed up:
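Male ddY mice (5 weeks, 10 per group) received CGS 21680 10 μg/20 μl intracerebroventricularly; test compounds given orally at 10 mg/kg in 0.3% Tween 80 suspension. Catalepsy scored 1 h after dosing on a 4.5 cm bar; total group score (maximum 50) compared with control; ≤4 per animal counted as remission.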

Experiment [2] concerns clonidine-induced aggressive behavior in mice. Description: Activity on Clonidine-induced Aggressive Behavior. The class given is in vivo, mouse (male ddY). As to conditions: 10 mg/kg po; for Number of attacks (count; average ± S.E.M.), test compound group: *: p < 0.05, 10 animals. The procedure:
Activity on Clonidine-induced Aggressive Behavior
Effect of test compounds to increase aggressive behavior induced by the intraperitoneal injection of clonidine [European Journal of Pharmacology, 29: 374 (1968)] was examined.
This test was carried out using 2 animals per group of male ddY mice of 20 to 25 g in body weight (Japan SLC). Each test compound was used by mixing it with Tween 80 and then suspending it in distilled water for injection (manufactured by Otsuka Pharmaceutical), and clonidine hydrochloride (manufactured by Sigma Co.) was used by dissolving it in physiological saline (manufactured by Otsuka Pharmaceutical). […] The number of aggressive behavior of each mouse was measured for 30 minutes immediately after the administration of clonidine. The effect was judged by comparing values of the number of aggressive behavior in the control and those in test compound-administered groups (significance test: Student t-test).

In experiment [3] the target is T1, adenosine A2A receptor (Rattus norvegicus, UniProt P30543).
T1 construct: from tissue; host or cells: rat corpus striatum, washed membrane suspension
The experiment is described as follows: Adenosine receptor binding activity (adenosine A2A receptor binding test), 3H-CGS 21680 binding. The following applies: 2 h, read-out: A2A receptor inhibition ratio (%); for inhibition at 0.1 µM: 10^-7 M; for inhibition at 0.01 µM: 10^-8 M. Summed up: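 Rat corpus striatum membranes (5 mg wet tissue/mL in 50 mM Tris-HCl pH 7.7, 10 mM MgCl2, adenosine deaminase) incubated with 4.0 nM 3H-CGS 21680 and test compound for 120 min at 25 °C, then filtered and counted. Nonspecific binding defined with 100 μM CPA; % inhibition of specific binding calculated.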

Experiment [4] concerns immobility time in forced swimming of mice. The experiment is described as follows: Forced Swimming Method (measurement of immobility time). Type of experiment: in vivo, mouse (male ddY). The following applies: 10 mg/kg oral, Steel-test vs solvent control. The procedure: Forced Swimming Method (measurement of immobility time)
Ten animals per group of ddY male mice (21 to 26 g in body weight, Japan SLC) were used as the experimental animal. During the preliminary feeding period, they were allowed to have feed and water freely in an animal room of a room temperature of 23±1° C. and a humidity of 55±5%. […] The drugs to be tested were suspended in a 0.3% Tween 80 solution and orally administered one hour before the test. In the negative control group, 10 ml/kg of the 0.3% Tween 80 solution alone was orally administered. Measurement of immobility time was carried out in accordance with the method of Porsolt [Arch. int Pharmacodyn., 229: 327-336 (1977)]. That is, a cylindrical transparent acrylic water tank (10 cm in diameter and 25 cm in height) was filled with 9 cm in depth of water having a temperature of 23±1° C., and mice were forced to swim for 6 minutes. When mice are put into water, they immediately start to swim trying to escape from the tank, but the motion gradually decreases 1 to 2 minutes thereafter. […] In order to reduce effects of daily rhythm, the test was carried out by using 5 of the 10 animals per group in the morning, and the remaining 5 animals in the afternoon. Further, measurement of immobility time was carried out by observing 2 animals at the same time and by not telling the observers distinctions about the solvent-administered group and doses of administered test drugs. Statistical analysis of the results was carried out by a multiple comparison test of the solvent-administered control group and each of the test drug-administered groups by Steel-test.

For experiment [5], the system named is haloperidol-induced catalepsy in mice. Description: Activity on haloperidol-induced Catalepsy. Type of experiment: in vivo, mouse (male ddY). As to conditions: 10 mg/kg oral; for Total score (catalepsy): 10 animals, maximum 50 points, control 50; for Number of Animals showing remission: catalepsy score 4 points or less in 10 cases; for Remission ratio (%): haloperidol-induced catalepsy. The procedure:
Activity on haloperidol-induced Catalepsy
Parkinson's disease is a disease based on the degeneration and cell death of the nigrostriatal dopaminergic neuron. When haloperidol (dopamine D1/D2 antagonist) is administered, catalepsy is induced by the block of postsynaptic D2 receptor. This haloperidol-induced catalepsy is known as a classic model in which symptoms of Parkinson's disease are produced by drug administration [European Journal of Pharmacology, 182: 327 (1990) and U.S. Pat. No. 3,991,207].
This test was carried out using 10 animals per group of male ddY mice of 5 week age (22 to 24 g in body weight, Japan SLC). Haloperidol (manufacturedby Janssen) was suspended in 0.3% CMC and administered intraperitoneally into mice at a dose of 1.0 mg/kg. Each test compound was used by mixing it with Tween 80 and then suspending it in distilled water for injection (manufactured by Otsuka Pharmaceutical). Also, L-DOPA (manufactured by Kyowa Hakko Kogyo Co., Ltd.) and benserazide HCl (manufactured by Kyowa Hakko Kogyo Co., Ltd.) were used by suspending them in 0.3% CMC. […] All of the test compounds were administered orally in a dose of 10 mg/kg, and 100 mg/kg of L-DOPA and 25 mg/kg of benserazide were used in combination as a control drug and administered by intraperitoneal injection. The catalepsy score was evaluated by the judging criteria shown in the above-described Table 3.
The effect was judged by total catalepsy scores of 10 animals in one group (the maximum is 50 points). When the total score was 40 points or less, the activity of drugs was judged positive. The number of animals showing remission of catalepsy was expressed by the number of cases in which the catalepsy score was 4 points or less in 10 cases. The catalepsy remission ratio was expressed as the percentage of the total score in the test compound-administered group to the total score in the control group.

Molecules are shown by their SMILES. Structures can show the parent of a compound that is named as a salt.

T1 sequence (P30543 whole entry): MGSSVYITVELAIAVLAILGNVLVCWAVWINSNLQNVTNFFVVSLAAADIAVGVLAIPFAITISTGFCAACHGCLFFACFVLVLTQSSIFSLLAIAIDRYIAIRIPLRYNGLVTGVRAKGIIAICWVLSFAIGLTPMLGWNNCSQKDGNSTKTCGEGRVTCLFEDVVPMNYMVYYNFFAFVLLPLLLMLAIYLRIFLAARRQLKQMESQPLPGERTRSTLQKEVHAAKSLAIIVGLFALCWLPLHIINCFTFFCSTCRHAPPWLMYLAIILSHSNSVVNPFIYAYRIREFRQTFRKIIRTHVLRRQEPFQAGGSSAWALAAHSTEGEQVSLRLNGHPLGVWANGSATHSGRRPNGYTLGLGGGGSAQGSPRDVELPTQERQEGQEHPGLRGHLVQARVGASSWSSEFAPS

As to `Nc1nc(N2CCOCC2)cc2nc(-c3ccco3)nn12` [Compound 39, 5-Amino-2-(2-furyl)-7-morpholino[1,2,4]triazolo[1.5-c]pyrimidine], in experiment [1], the “Total score (catalepsy)” value was determined as 20, the “Number of Animals showing remission” value came out at 9 and the inhibition in vivo at 10 mg/kg is 56%. Further, in experiment [2], the “Number of attacks in test compound group/number of attacks in control group” value was 8.1 and the “Number of attacks (count; average ± S.E.M.), test compound group” value amounted to 9.70 ± 3.42 count.
In the case of `Nc1nc(N2CCN(C/C=C/c3ccccc3)CC2)cc2nc(-c3ccco3)nn12` [Compound 88, 5-Amino-7-(4-trans-cinnamylpiperazinyl)-2-(2-furyl)[1,2,4]triazolo[1,5-c]pyrimidine], the inhibition at 0.1 µM in experiment [3] came out at 57%. In experiment [1], the “Total score (catalepsy)” value came to 0, the “Number of Animals showing remission” value turned out to be 10 and the inhibition in vivo at 10 mg/kg stood at 98%. In experiment [4], the Immobility time-shortening activity result is given as “Significant immobility time-shortening activity was observed”.
The matching figures for `Nc1nc(N2CCN(CC#Cc3ccccc3)CC2)cc2nc(-c3ccco3)nn12` [Compound 89, 5-Amino-2-(2-furyl)-7-(4-(3-phenylpropargyl)piperazinyl)[1,2,4]triazolo[1,5-c]pyrimidine hydrochloride]: 52%, 15, 10, 68% and “Significant immobility time-shortening activity was observed”.
The matching figures for `CC(C)NC(=O)c1cnc(N)n2nc(-c3ccco3)nc12` [Compound 165, 5-Amino-2-(2-furyl)-8-isopropylcarbamoyl[1,2,4]triazolo[1,5-c]pyrimidine]: 103%, 13, 9, 74% and “Significant immobility time-shortening activity was observed”.
Regarding `CN1CCN(c2cc3nc(-c4ccco4)nn3c(N)n2)CC1` [Compound 40, 5-Amino-2-(2-furyl)-7-(4-methylpiperazinyl)[1,2,4]triazolo[1,5-c]pyrimidine], in experiment [3], the inhibition at 0.1 µM was 50% and the inhibition at 0.01 µM was found to be 11%. Also, in experiment [1], the “Total score (catalepsy)” value is 20, the “Number of Animals showing remission” value amounted to 10 and the inhibition in vivo at 10 mg/kg worked out at 56%. Moreover, in experiment [5], the “Total score (catalepsy)” value is recorded as 18, the “Number of Animals showing remission” value stood at 7 and the “Remission ratio (%)” value came to 64%. In experiment [2], the “Number of attacks in test compound group/number of attacks in control group” value is 7.6 and the “Number of attacks (count; average ± S.E.M.), test compound group” value is on record as 22.00 ± 6.44 count.
As to `COc1ccc(Oc2cc3nc(-c4ccco4)nn3c(N)n2)cc1OC` [Compound 31, 5-Amino-7-(3,4-dimethoxyphenoxy)-2-(2-furyl)[1,2,4]triazolo[1,5-c]pyrimidine], in experiment [1], the “Total score (catalepsy)” value came out at 28, the “Number of Animals showing remission” value is 9 and the inhibition in vivo at 10 mg/kg came out at 42%. Also, in experiment [5], the “Total score (catalepsy)” value stood at 15, the “Number of Animals showing remission” value is recorded as 10 and the “Remission ratio (%)” value was 70%. Also, in experiment [2], the “Number of attacks in test compound group/number of attacks in control group” value is recorded as 9.1 and the “Number of attacks (count; average ± S.E.M.), test compound group” value worked out at 38.1 ± 13.06 count.
`Nc1nc(N2CCN(CCc3ccccc3)CC2)cc2nc(-c3ccco3)nn12` [Compound 46, 5-Amino-2-(2-furyl)-7-[4-(2-phenylethyl)piperazinyl][1,2,4]triazolo[1,5-c]pyrimidine]: in experiment [3], the inhibition at 0.1 µM stood at 79% and the inhibition at 0.01 µM stood at 35%. For the same compound, in experiment [1], the “Total score (catalepsy)” value is 9, the “Number of Animals showing remission” value is 10 and the inhibition in vivo at 10 mg/kg came out at 78%. In experiment [5], the “Total score (catalepsy)” value was 13, the “Number of Animals showing remission” value is on record as 10 and the “Remission ratio (%)” value is recorded as 74%.

The values above are taken from patent publication US6222035A, “[1,2,4] triazolo [1,5-C] pyrimidine derivatives” (Kyowa Hakko Kogyo Co., Ltd., priority 1997, dated 2001).
